We go through 14 molecules from patent publication US8911984B2, “Tannase, gene encoding same, and process for producing same” (Amano Enzyme Inc., priority 2008, dated 2014).

One data set deals with Tannase. Description: Effect of metallic ion and inhibitor on tannase activity. The note with it: 30° C. 30 minutes, pH 5.0; for Relative activity (%): no addition = 100%. The class given is biochemical, Aspergillus awamori. On the procedure: 0.5 mL of a 50 mM citric acid buffer solution (pH 5.0) containing 1% tannic acid (Tannic acid, ACS Reagent [SIGMA]) is added with 0.5 ml of an enzyme solution, […], thereafter adding a 0.2 M acetic acid buffer solution (pH 5.0) containing 2% BSA to terminate the reaction. After terminating the reaction, the reaction solution is stood still in ice for 20 minutes and then centrifuged at 3,000 rpm for 20 minutes. The obtained supernatant is diluted 50 holds and an absorbance at a wavelength of 260 nm is measured. An analytical curve (standard curve) is formed using gallic acid and an enzyme amount that releases 1 μM of gallic acid for 1 minute is assumed to be 1 unit. […] The activity increased by addition of urea.

Data set [1] deals with tannase derived from Aspergillus awamori. Put plainly: Substrate specificity of tannase (rhodanine method). The note with it: 0.17% tannic acid or 10 mM gallic acid ester, pH 5.0, 37° C., 30 minutes; tannic acid = 100%. The class given is biochemical. How it is done:
As described below, the method of Sharma (Anal. Biochem. 279, 85-89, 2000) was modified and substrate specificity was measured.
125 μL of a 50 mM citric acid buffer solution (pH 5.0) containing 0.17% tannic acid or 10 mM gallic acid esters (methyl gallate, ethyl gallate, propyl gallate, and isoamyl gallate) is added with 125 μL of an enzyme solution and incubated at 37° C. for 30 minutes, followed by adding and mixing 300 μL of methanol containing 0.667% Rhodanine, and the reaction solution is stood still for 10 minutes. Next, 200 μL of 0.5 N NaOH is added and mixed and the reaction solution is stood still for 10 minutes. Subsequently, the reaction solution is diluted with 9 mL of distilled water and left for 5 minutes, and an absorbance at a wavelength of 520 nm is measured. An analytical curve (standard curve) was formed using gallic acid and an activity that releases 1 μM of gallic acid for 1 minute is assumed to be 1 unit.
Substrate specificities to tannic acid and gallic acid esters (methyl gallate, ethyl gallate, propyl gallate, and isoamyl gallate) were measured in the above-mentioned measurement method of substrate specificity. When a dissolution activity to tannic acid was assumed to be 100%, a dissolution activity of each of the gallic acid esters was 41% for methyl gallate, 30% for ethyl gallate, 29% for propyl gallate, and 27% for isoamyl gallate.

Data set [2] is described as follows: Isoelectric point by isoelectric electrophoresis (PhastSystem). Type of data set: physicochemical. On the procedure: When the isoelectric point of the present enzyme was measured by isoelectric electrophoresis using PhastSystem (GE Healthcare Bio-Sciences Ltd.), it was 6.4.
Data set [3] is described as follows: Thermostability of purified tannase (residual activity after thermal treatment). The class given is biochemical. Conditions: 30 minutes, 50 mM citric acid buffer solution (pH 5.0). How it is done: (§1) 0.5 mL of a 50 mM citric acid buffer solution (pH 5.0) containing 1% tannic acid (Tannic acid, ACS Reagent [SIGMA]) is added with 0.5 ml of an enzyme solution, and incubated at 37° C. for 30 minutes, thereafter adding a 0.2 M acetic acid buffer solution (pH 5.0) containing 2% BSA to terminate the reaction. After terminating the reaction, the reaction solution is stood still in ice for 20 minutes and then centrifuged at 3,000 rpm for 20 minutes. The obtained supernatant is diluted 50 holds and an absorbance at a wavelength of 260 nm is measured. An analytical curve (standard curve) is formed using gallic acid and an enzyme amount that releases 1 μM of gallic acid for 1 minute is assumed to be 1 unit.
The purified enzyme was thermally treated for 30 minutes at each temperature of 30° C., 35° C., 40° C., 45° C., 50° C., 55° C., 60° C., 65° C., 70° C., 75° C. and 80° C. in a 50 mM citric acid buffer solution (pH 5.0), and a residual activity was then measured in the above-mentioned measurement method of a tannase activity. Each measurement result was shown as a residual activity, assuming a thermally untreated activity as 100% (FIG. 3). The purified enzyme had 90% or more of a residual activity in the thermal treatment at 65° C. for 30 minutes and was stable until 65° C.

Data set [4] in a line: Optimum reaction pH of tannase. Conditions: 37° C., 30 minutes, 1% tannic acid; citric acid buffer pH 3-6, phosphate buffer pH 6-8. Type of data set: biochemical. On the procedure: as §1
The optimum reaction pH was measured under the reaction condition of 37° C. for 30 minutes in each buffer solution (citric acid buffer solutions at pH 3.0, 3.5, 4.0, 4.5, 5.0, 5.5 and 6.0, and phosphate buffer solutions at pH 6.0, 6.5, 7.0, 7.5 and 8.0) using 1% tannic acid for a substrate. Each measurement result was shown as a relative activity, assuming a value of a pH showing the maximum activity as 100% (FIG. 2). The optimum reaction pH was about 5.5.

Data set [5] is described as follows: pH stability of purified tannase. Type of data set: biochemical. Conditions: 30° C., 30 minutes. How it is done: as §1
The purified enzyme was treated in each buffer solution (citric acid buffer solutions at pH 3.0, 3.5, 4.0, 4.5, 5.0, 5.5 and 6.0, and phosphate buffer solutions at pH 6.0, 6.5, 7.0, 7.5 and 8.0) at 30° C. for 30 minutes and diluted 5 holds with a 0.2 M acetic acid buffer solution (pH 5.0), and an activity was measured in the above-mentioned measurement method of a tannase activity. Each measurement result was shown as a relative activity, assuming a value of a pH showing the maximum activity as 100% (FIG. 4). The stable pH range was from 3 to 8.

Data set [6] in a line: Optimum reaction temperature of tannase. The class given is biochemical. Conditions: 50 mM citric acid buffer solution (pH 5.0), 30-80° C. tested. How it is done: as §1
According to the above-mentioned measurement method of a tannase activity, the purified enzyme was reacted at reaction temperatures of 30° C., 35° C., 40° C., 45° C., 50° C., 55° C., 60° C., 65° C., 70° C., 75° C. and 80° C. Each measurement result was shown as a relative activity, assuming a value at a temperature showing the maximum activity as 100% (FIG. 1). The optimum reaction temperature was around 70° C.

Regarding `[Cu+2]` [Cu^2+], the “Relative activity (%)” value in the data set with Tannase (20 mM metallic ion or EDTA) is listed as 72%.

For `COC(=O)c1cc(O)c(O)c(O)c1` [methyl gallate], in data set [1], the “dissolution activity relative to tannic acid” value is given as 41%. For `[Zn+2]` [Zn^2+], in the data set on Tannase (20 mM metallic ion or EDTA), the “Relative activity (%)” value came to 82%. Still for that read-out and setting: for `[Ca+2]` [Ca^2+] the value was 109%; for `[Fe+3]` [Fe^3+], 91%. In the case of `CCCOC(=O)c1cc(O)c(O)c(O)c1` [propyl gallate], the “dissolution activity relative to tannic acid” value in data set [1] is given as 29%. On to `O=C(O)CN(CCN(CC(=O)O)CC(=O)O)CC(=O)O` [EDTA], for which the “Relative activity (%)” value in the data set with Tannase (20 mM metallic ion or EDTA) is on record as 101%.

With `CCOC(=O)c1cc(O)c(O)c(O)c1` [ethyl gallate], the “dissolution activity relative to tannic acid” value in data set [1] came to 30%.

In the case of `O=C(OC[C@H]1O[C@@H](OC(=O)c2cc(O)c(O)c(OC(=O)c3cc(O)c(O)c(O)c3)c2)[C@H](OC(=O)c2cc(O)c(O)c(OC(=O)c3cc(O)c(O)c(O)c3)c2)[C@@H](OC(=O)c2cc(O)c(O)c(OC(=O)c3cc(O)c(O)c(O)c3)c2)[C@@H]1OC(=O)c1cc(O)c(O)c(OC(=O)c2cc(O)c(O)c(O)c2)c1)c1cc(O)c(O)c(OC(=O)c2cc(O)c(O)c(O)c2)c1` [tannic acid], the “dissolution activity relative to tannic acid” value in data set [1] is listed as 100%. Regarding `CC(C)CCOC(=O)c1cc(O)c(O)c(O)c1` [isoamyl gallate], in data set [1], the “dissolution activity relative to tannic acid” value is reported as 27%. Regarding `[Mn+2]` [Mn^2+], the “Relative activity (%)” value with Tannase (20 mM metallic ion or EDTA) came to 98%. For `NC(N)=O` [Urea, urea], the “effect on tannase activity (in words)” value in the data set with Tannase is “increased”. Moreover, the “Relative activity (%)” value with Tannase (urea 0.4 M) came to 108%; with Tannase (urea 0.8 M), 117%; in the data set on Tannase (urea 2 M), 150%; with Tannase (urea 4 M), 197%. On to `[Mg+2]` [Mg^2+], for which the “Relative activity (%)” value with Tannase (20 mM metallic ion or EDTA) amounted to 118%.

B1: purified enzyme: tannase purified from Aspergillus awamori NBRC-4033 (IFO-4033), amino acid sequence SEQ ID NO: 5 (protein, listed as Aspergillus awamorii)
chain: MRSPAWASIAITAFAALANAGTPSTLAELCTDSIVKAALPPSEFIKGITIDSDSVTTEVVTNSSFSSEFYPSATIDYCNVTFAYSHDGIDGDQVLLEIWLPAPTNFKNRWLSTGGGGYAINSGDQSLPGGVMYGAASGMTDGGFGGFSNNADTAMLLANGTLNYETLYMFAYKAHRELSLLGKALTRNVYGMSDSDKLYAYYQGCSEGGREGWSQVQRFGDEWDGAIIGAPAFRWSFQQTQHLYSNIVEKTLDYYPPPCELDKIVNETIAACDAMDGKVDWVVARTDLCLLDFDISTIEGKPYSCAASRGTPAQNGTVSAKGIEVAKTIINGLHDSQGRRVYFSYQPTAAFDDAETQYNSTTGQWGLDIDQLGGEYIALLVDKNGTTLDSLDGITYDTLKDWMISGLQEYYSTLQTTWPDLTPFHNAGGKVIHFHGDADFSIPTAASIRYWESVRSIMYPNKDYNSSAEALNEWYRLYTVPGAGHCATNDAMPNGPFPQTNMAVMIDWVENGVVPTTLNATVLQGENEGQNQQLCAWPLRPLWTNNGTTMECVYNQRSIDSWHYDLDAVPMPVY
Turning to B1, the isoelectric point in data set [2] is on record as 6.4. Moreover, the “residual activity after thermal treatment” value in data set [3] (65° C., untreated = 100%) is listed as not below 90%. In addition, in data set [3], the “temperature up to which enzyme is stable” value was not above 65 °C. Also, the “optimum reaction pH” value in data set [4] is reported as “about 5.5”. Also, the “activity with respect to the maximum activity after treatment within pH 3 to 8” value in data set [5] is not below 80%. For the same molecule, in data set [6], the optimum reaction temperature entry is “around 70 °C”.
